According to US20100297038A1, “Benzimidazole Derivatives And Their Use As Cooling Agents” (Givaudan S.A., priority 2008, published 2010):

Assay: Cooling intensity: panelists taste aqueous solutions, compared with menthol at 2 ppm
Assay type: in vivo, human
Conditions: tasted by a small group of panelists
With `Cc1nc2ccccc2n1CCc1ccccc1` [Example 1, 2-methyl-1-phenethyl-1H-benzo[d]imidazole] the “Concentration with a cooling intensity similar to or slightly higher than that of a solution of menthol at 2 ppm” value (shortened to “Concentration”) was 0.03 ppm. For `COc1ccc(CCn2c(C)nc3ccccc32)cc1` [Example 2, 1-(4-methoxyphenethyl)-2-methyl-1H-benzo[d]imidazole], the “Concentration” value was 0.1 ppm. In the case of `CCNC(=O)C1CC(C)CCC1C(C)C` (stereo not shown) [WS-3, N-ethyl p-menthanecarboxamide], the “Concentration” value is reported as 1.5 ppm. With `CC1CCC(C(C)C)C(O)C1` (stereo not shown) [I-Menthol, I-menthol] the “Concentration” value was 2.0 ppm.
